The source of these data is US20240383875A1, “Benzimidazole Pyridine Derivatives” (Hoffmann-La Roche Inc., priority 2022, published 2024).

Common to all, as to assay type: biochemical
One experiment has as its target SIK3 (Homo sapiens, UniProt Q9Y2K2). The experiment is described as follows: Enzymatic activity assay SIK3, RapidFire mass spectrometry (phosphorylation of CHK-peptide). Particulars: RapidFire MS, inhibition of SIK3; read-out: SIK3 RF IC50. The gist of the method:
(§1)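 Human SIK1/2/3, 5/0.5/1.5 nM; 12.5 mM HEPES pH 7.0, 10 mM Mg acetate, 0.005% BSA. 30 min cpd pre-inc, + CHK-peptide (10 μM soln) + ATP (100 μM soln), 45 min RT. Formic acid stop; RF-MS phospho ratio; IC50.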

A further experiment deals with SIK1 (Homo sapiens, UniProt P57059). The experiment is described as follows: Enzymatic activity assay SIK1, RapidFire mass spectrometry (phosphorylation of CHK-peptide). The following applies: RapidFire MS, inhibition of SIK1; read-out: SIK1 RF IC50. The gist of the method:
as §1

The next experiment addresses SIK2 (Homo sapiens, UniProt Q9H0K1). The experiment is described as follows: Enzymatic activity assay SIK2, RapidFire mass spectrometry (phosphorylation of CHK-peptide). The following applies: RapidFire MS, inhibition of SIK2; read-out: SIK2 RF IC50. In outline:
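Read-out is the summed phospho-species fraction of CHK-peptide by RapidFire mass spectrometry, normalized between DMSO and 1 μM YKL-05-099. The reaction used 0.5 nM SIK2, 100 μM ATP and 10 μM peptide solutions in HEPES pH 7.0/10 mM magnesium acetate for 45 min at ambient temperature.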

A word on the IC50: it is the concentration that gives 50% inhibition.

SIK1, sequence (P57059 whole entry): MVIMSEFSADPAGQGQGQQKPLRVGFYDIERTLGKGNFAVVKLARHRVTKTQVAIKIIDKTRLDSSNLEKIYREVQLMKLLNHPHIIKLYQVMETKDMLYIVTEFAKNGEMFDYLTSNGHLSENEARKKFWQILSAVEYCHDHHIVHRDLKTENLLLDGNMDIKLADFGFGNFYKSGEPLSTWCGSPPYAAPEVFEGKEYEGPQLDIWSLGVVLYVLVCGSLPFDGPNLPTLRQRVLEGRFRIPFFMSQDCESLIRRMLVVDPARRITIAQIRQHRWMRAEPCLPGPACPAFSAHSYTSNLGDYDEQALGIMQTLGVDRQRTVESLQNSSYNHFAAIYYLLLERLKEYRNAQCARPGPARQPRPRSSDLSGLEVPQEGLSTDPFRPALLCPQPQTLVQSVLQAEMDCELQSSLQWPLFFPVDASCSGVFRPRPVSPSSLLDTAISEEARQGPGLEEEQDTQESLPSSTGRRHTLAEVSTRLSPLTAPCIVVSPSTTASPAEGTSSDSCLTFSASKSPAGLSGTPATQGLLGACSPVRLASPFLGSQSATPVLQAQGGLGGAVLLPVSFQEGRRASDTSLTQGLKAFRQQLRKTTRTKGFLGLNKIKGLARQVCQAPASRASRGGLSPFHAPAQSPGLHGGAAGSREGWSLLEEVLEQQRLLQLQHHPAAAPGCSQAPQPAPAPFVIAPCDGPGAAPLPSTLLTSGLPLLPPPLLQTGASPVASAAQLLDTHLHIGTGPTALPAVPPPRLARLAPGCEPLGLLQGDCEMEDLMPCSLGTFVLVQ
SIK3, sequence (Q9Y2K2 whole entry): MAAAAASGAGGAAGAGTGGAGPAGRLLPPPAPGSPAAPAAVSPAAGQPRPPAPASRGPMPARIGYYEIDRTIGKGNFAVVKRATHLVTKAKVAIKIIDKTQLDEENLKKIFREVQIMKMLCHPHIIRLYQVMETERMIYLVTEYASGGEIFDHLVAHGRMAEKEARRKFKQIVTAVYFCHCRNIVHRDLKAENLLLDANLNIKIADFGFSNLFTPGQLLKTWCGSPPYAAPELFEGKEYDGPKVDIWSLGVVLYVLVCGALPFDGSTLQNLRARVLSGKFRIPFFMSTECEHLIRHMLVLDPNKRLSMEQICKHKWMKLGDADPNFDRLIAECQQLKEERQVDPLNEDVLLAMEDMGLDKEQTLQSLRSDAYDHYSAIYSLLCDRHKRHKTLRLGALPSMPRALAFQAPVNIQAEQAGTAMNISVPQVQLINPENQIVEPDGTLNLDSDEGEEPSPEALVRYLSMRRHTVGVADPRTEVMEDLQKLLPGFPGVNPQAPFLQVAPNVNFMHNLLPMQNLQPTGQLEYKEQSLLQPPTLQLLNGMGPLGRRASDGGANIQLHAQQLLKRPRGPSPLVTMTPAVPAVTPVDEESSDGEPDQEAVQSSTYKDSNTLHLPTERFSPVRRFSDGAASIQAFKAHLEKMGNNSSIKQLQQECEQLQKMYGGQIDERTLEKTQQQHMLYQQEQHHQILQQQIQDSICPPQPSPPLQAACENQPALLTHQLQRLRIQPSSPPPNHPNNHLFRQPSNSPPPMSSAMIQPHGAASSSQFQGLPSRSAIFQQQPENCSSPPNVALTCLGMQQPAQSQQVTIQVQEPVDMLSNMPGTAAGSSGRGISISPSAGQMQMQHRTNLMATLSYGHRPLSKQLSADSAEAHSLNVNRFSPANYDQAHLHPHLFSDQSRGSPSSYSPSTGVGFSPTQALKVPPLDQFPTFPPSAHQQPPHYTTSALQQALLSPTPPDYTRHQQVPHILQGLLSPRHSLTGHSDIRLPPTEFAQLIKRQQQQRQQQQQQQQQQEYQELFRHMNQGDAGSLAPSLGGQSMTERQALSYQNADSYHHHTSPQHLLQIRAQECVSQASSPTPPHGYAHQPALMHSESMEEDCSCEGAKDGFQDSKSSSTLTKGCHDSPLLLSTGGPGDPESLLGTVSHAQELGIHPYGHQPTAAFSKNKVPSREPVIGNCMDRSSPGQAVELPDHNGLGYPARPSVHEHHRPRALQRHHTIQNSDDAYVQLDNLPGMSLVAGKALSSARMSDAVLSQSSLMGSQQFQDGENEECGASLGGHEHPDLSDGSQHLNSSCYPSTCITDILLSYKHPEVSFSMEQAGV
SIK2, sequence (Q9H0K1 whole entry): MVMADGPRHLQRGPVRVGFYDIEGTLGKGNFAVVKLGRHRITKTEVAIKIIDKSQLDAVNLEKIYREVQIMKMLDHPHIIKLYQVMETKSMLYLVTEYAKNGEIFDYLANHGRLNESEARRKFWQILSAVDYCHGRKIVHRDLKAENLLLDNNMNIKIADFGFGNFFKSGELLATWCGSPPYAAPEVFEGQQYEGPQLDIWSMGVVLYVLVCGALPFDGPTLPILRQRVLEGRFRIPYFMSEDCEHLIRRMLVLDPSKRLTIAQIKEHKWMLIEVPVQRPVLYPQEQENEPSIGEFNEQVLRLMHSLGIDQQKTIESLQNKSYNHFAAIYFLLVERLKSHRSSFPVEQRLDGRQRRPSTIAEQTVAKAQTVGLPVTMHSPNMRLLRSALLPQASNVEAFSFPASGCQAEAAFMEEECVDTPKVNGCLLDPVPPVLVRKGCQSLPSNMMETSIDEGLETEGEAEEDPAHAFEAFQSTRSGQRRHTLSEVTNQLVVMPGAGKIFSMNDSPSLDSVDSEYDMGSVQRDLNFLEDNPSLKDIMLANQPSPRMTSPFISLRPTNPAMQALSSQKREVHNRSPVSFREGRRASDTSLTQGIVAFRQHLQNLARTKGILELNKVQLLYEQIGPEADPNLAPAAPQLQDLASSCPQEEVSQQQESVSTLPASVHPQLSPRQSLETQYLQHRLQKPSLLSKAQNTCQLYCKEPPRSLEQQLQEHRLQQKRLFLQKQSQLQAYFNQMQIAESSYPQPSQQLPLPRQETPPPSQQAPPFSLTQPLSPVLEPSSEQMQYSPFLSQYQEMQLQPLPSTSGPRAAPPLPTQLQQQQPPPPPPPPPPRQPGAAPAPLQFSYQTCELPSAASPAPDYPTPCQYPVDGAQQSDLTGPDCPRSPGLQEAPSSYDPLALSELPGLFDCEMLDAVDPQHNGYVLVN

As to `Cc1ccc(Nc2ccc3c(c2)ncn3-c2ccc(C(C)O)c(-n3nc(C(F)(F)F)c4c3CCN(C3COC3)C4)n2)nn1` (stereo not drawn) [Example 177, 1-[6-[5-[(6-Methylpyridazin-3-yl)amino]benzimidazol-1-yl]-2-[5-(oxetan-3-yl)-3-(trifluoromethyl)-6,7-dihydro-4H-pyrazolo[4,3-c]pyridin-1-yl]-3-pyridyl]ethanol], the IC50 at SIK3 is 3.1 nM; at SIK1, 253 nM; at SIK2, 2.8 nM.
Take `Cc1ccc(Nc2ccc3c(c2)ncn3-c2ccc(C(C)O)c(N3CC[C@H]4NCC[C@@H]43)n2)nn1` (mixture of isomers) [Example 127, 1-[6-[5-[(6-Methylpyridazin-3-yl)amino]benzimidazol-1-yl]-2-[rac-trans-2,3,3a,5,6,6a-hexahydro-1H-pyrrolo[3,2-b]pyrrol-4-yl]-3-pyridyl]ethanol]: the IC50 at SIK3 came to 15.5 nM; at SIK1, 457 nM; at SIK2 it was 13.7 nM.
Taken in the same sequence, the figures for `Cc1ccc(Oc2ccc3ncn(-c4ccc(C(C)O)c(-n5nc(C#N)cc5C)n4)c3c2)nn1` (stereo not drawn) [Example 74, 1-[3-(1-Hydroxyethyl)-6-[6-(6-methylpyridazin-3-yl)oxybenzimidazol-1-yl]-2-pyridyl]-5-methyl-pyrazole-3-carbonitrile] were 190 nM, 45 nM and 36.6 nM.
As for `Cc1ccc(Nc2ccc3c(c2)ncn3-c2ccc(C(C)O)c(N3C[C@H](C#N)C[C@@H]3C)n2)nn1` (stereo partly drawn) [Example 242, (3R,5S)-1-[3-(1-hydroxyethyl)-6-[5-[(6-methylpyridazin-3-yl)amino]benzimidazol-1-yl]-2-pyridyl]-5-methyl-pyrrolidine-3-carbonitrile; formic acid], the values for the IC50 at SIK3, on SIK1 and on SIK2 were 1.8 nM, 843 nM and 9.5 nM, respectively.
For `Cc1ccc(Nc2ccc3c(c2)ncn3-c2ccc(C(C)O)c(-c3occc3C#N)n2)nn1` (stereo not drawn) [Example 226, 2-[3-(1-Hydroxyethyl)-6-[5-[(6-methylpyridazin-3-yl)amino]benzimidazol-1-yl]-2-pyridyl]furan-3-carbonitrile], the IC50 on SIK3 was 21.7 nM; on SIK1, above 30000 nM; on SIK2 it was 62.1 nM.
For `Cc1ccc(Nc2ccc3c(c2)ncn3-c2ccc(C(C)O)c(-c3nc(CC(F)(F)F)nn3C)n2)nn1` (stereo not drawn) [Example 401, 1-[6-[5-[(6-methylpyridazin-3-yl)amino]benzimidazol-1-yl]-2-[2-methyl-5-(2,2,2-trifluoroethyl)-1,2,4-triazol-3-yl]-3-pyridyl]ethanol] the same measures were 4.2 nM, 1360 nM and 10.4 nM.
For `COc1ccnnc1Nc1ccc2c(c1)ncn2-c1ccc(C(C)O)c(-n2nc(C#N)cc2C)n1` (stereo not drawn) [Example 160, 1-[3-(1-Hydroxyethyl)-6-[5-[(4-methoxypyridazin-3-yl)amino]benzimidazol-1-yl]-2-pyridyl]-5-methyl-pyrazole-3-carbonitrile], the IC50 at SIK3 stood at 1.2 nM; at SIK1 it was 223 nM; on SIK2, 3.2 nM.
For `Cc1cc(C#N)nn1-c1nc(-n2cnc3cc(Nc4ccc(OCC(F)F)nn4)ccc32)ccc1C(C)O` (stereo not drawn) [Example 195, 1-[6-[5-[[6-(2,2-Difluoroethoxy)pyridazin-3-yl]amino]benzimidazol-1-yl]-3-(1-hydroxyethyl)-2-pyridyl]-5-methyl-pyrazole-3-carbonitrile] the same measures were 1.4 nM, 20 nM and 3.1 nM.
For `Cc1ccc(Nc2ccc3c(c2)ncn3-c2ccc(C(C)O)c(N3CC(C(F)F)C4(CC4)C3)n2)nn1` (stereo not drawn) [Example 325, 1-[2-[7-(difluoromethyl)-5-azaspiro[2.4]heptan-5-yl]-6-[5-[(6-methylpyridazin-3-yl)amino]benzimidazol-1-yl]-3-pyridyl]ethanol] the same measures were 3.4 nM, 1120 nM and 21.4 nM.
In the case of `Cc1ccc(Nc2ccc3c(c2)ncn3-c2ccc(C(C)O)c(N3CC4CC3C(F)(F)C4)n2)nn1` (stereo not drawn) [Example 324, 1-[2-(6,6-difluoro-2-azabicyclo[2.2.1]heptan-2-yl)-6-[5-[(6-methylpyridazin-3-yl)amino]benzimidazol-1-yl]-3-pyridyl]ethanol], the IC50 on SIK3 is 0.8 nM; at SIK1, 577 nM; on SIK2 it was 10.5 nM.
For “1-[6-[6-fluoro-5-[(5-fluoro-6-methyl-3-pyridyl)amino] benzimidazol-1-yl]-3-(1-hydroxyethyl)-2-pyridyl]-5-methyl-pyrazole-3-carbonitrile [Example 389]”, the IC50 on SIK3 is 5.1 nM; on SIK1 it was 42 nM; on SIK2 it was 7.9 nM.
With `Cc1cc(C#N)nn1-c1nc(-n2cnc3cc(OCCN4CCOCC4)ccc32)ccc1C(C)O` (stereo not drawn) [Example 68, 1-[3-(1-Hydroxyethyl)-6-[5-(2-morpholinoethoxy)benzimidazol-1-yl]-2-pyridyl]-5-methyl-pyrazole-3-carbonitrile], the IC50 on SIK3 stood at 29.7 nM; on SIK1, 179 nM; on SIK2, 27.7 nM.
On to `Cc1ccc(Nc2ccc3ncn(-c4ccc(C(C)O)c(NCC5(C#N)CC5)n4)c3c2)nn1` (stereo not drawn) [Example 117, 1-[[[3-(1-Hydroxyethyl)-6-[6-[(6-methylpyridazin-3-yl)amino]benzimidazol-1-yl]-2-pyridyl]amino]methyl]cyclopropanecarbonitrile; formic acid], for which the IC50 on SIK3 was 365 nM; on SIK1, 3530 nM; at SIK2 it was 1020 nM.
As for `COc1cc(-c2nc(-n3cnc4cc(Nc5ccc(C)nn5)ccc43)ccc2C(C)O)c(C)cn1` (stereo not drawn) [Example 285, 1-[2-(2-methoxy-5-methyl-4-pyridyl)-6-[5-[(6-methylpyridazin-3-yl)amino]benzimidazol-1-yl]-3-pyridyl]ethanol], the IC50 was determined as 6.4 nM at SIK3, 497 nM at SIK1 and 11.6 nM at SIK2.
Taken in the same sequence, the figures for `COc1cc2c(cc1Nc1ccc(C)nn1)ncn2-c1ccc(C(C)O)c(-n2nc(C#N)cc2C)n1` (stereo not drawn) [Example 185, 1-[3-(1-Hydroxyethyl)-6-[6-methoxy-5-[(6-methylpyridazin-3-yl)amino]benzimidazol-1-yl]-2-pyridyl]-5-methyl-pyrazole-3-carbonitrile] were 0.7 nM, 6 nM and 0.3 nM.
For the molecule `Cc1cc(C(F)F)nn1-c1nc(-n2cnc3cc(Nc4ccc(C5(C)OCCO5)nn4)c(F)cc32)ccc1C(C)O` (stereo not drawn) [Example 337, 1-[2-[3-(difluoromethyl)-5-methyl-pyrazol-1-yl]-6-[6-fluoro-5-[[6-(2-methyl-1,3-dioxolan-2-yl)pyridazin-3-yl]amino]benzimidazol-1-yl]-3-pyridyl]ethanol], the values for the IC50 on SIK3, on SIK1 and on SIK2 were 4.8 nM, 1200 nM and 8.3 nM, respectively.
In the case of `Cc1ccc(Nc2cc3c(cc2OC2COC2)ncn3-c2ccc(C(C)O)c(-n3nc(OC(F)F)cc3C)n2)nn1` (stereo not drawn) [Example 353, 1-[2-[3-(difluoromethoxy)-5-methyl-pyrazol-1-yl]-6-[6-[(6-methylpyridazin-3-yl)amino]-5-(oxetan-3-yloxy)benzimidazol-1-yl]-3-pyridyl]ethanol], the IC50 was found to be 218 nM at SIK3, 230 nM at SIK1 and 60.6 nM on SIK2.
Take `Cc1ccc(Nc2ccc3c(c2)ncn3-c2ccc(CO)c(-c3cn(CC(F)(F)F)nc3C)n2)nn1` [Example 315, [6-[5-[(6-methylpyridazin-3-yl)amino]benzimidazol-1-yl]-2-[3-methyl-1-(2,2,2-trifluoroethyl)pyrazol-4-yl]-3-pyridyl]methanol]: the IC50 on SIK3 came out at 2.9 nM; on SIK1, 1090 nM; on SIK2, 7.3 nM.
Take `CNC(=O)c1cc(C)n(-c2nc(-n3cnc4cc(Nc5ccc(C)nn5)ccc43)ccc2C(C)O)n1` (stereo not drawn) [Example 152, 1-[3-(1-Hydroxyethyl)-6-[5-[(6-methylpyridazin-3-yl)amino]benzimidazol-1-yl]-2-pyridyl]-N,5-dimethyl-pyrazole-3-carboxamide]: the IC50 amounted to 16.1 nM at SIK3, 5040 nM on SIK1 and 82.1 nM on SIK2.
For the molecule `Cc1ccc(Nc2ccc3c(c2)ncn3-c2ccc(C(C)O)c(-n3nc(C(F)F)cc3C)n2)nn1` (stereo not drawn) [Example 129, 1-[2-[3-(Difluoromethyl)-5-methyl-pyrazol-1-yl]-6-[5-[(6-methylpyridazin-3-yl)amino]benzimidazol-1-yl]-3-pyridyl]ethanol; formic acid], the IC50 on SIK3 was 1.2 nM; at SIK1, 472 nM; on SIK2 it was 3.9 nM.
Consider `Cc1ccc(Nc2cc3ncn(-c4ccc(C(C)O)c(-n5nc(C#N)cc5C)n4)c3cc2OCCN2CCOCC2)cn1` (stereo not drawn) [Example 297, 1-[3-(1-hydroxyethyl)-6-[5-[(6-methyl-3-pyridyl)amino]-6-(2-morpholinoethoxy)benzimidazol-1-yl]-2-pyridyl]-5-methyl-pyrazole-3-carbonitrile], for which the IC50 was determined as 14.8 nM on SIK3, 10 nM on SIK1 and 6.2 nM at SIK2.
`Cc1ccc(Nc2ccc3c(c2)ncn3-c2ccc(C(C)O)c(-c3cc(C(F)F)ncc3C)n2)nn1` (stereo not drawn) [Example 335, 1-[2-[2-(difluoromethyl)-5-methyl-4-pyridyl]-6-[5-[(6-methlpyridazin-3-yl)amino]benzimidazol-1-yl]-3-pyridyl]ethanol]: the IC50 at SIK3 was determined as 0.3 nM; at SIK1 it was 10 nM; on SIK2, 1 nM.
